Like-named read-outs stand apart in the source and are kept apart here. Starred links: 1 amine or outer side, 2 acyl side, 3 side chain; linkers in the order of their positions; H or OH if unused. Positions of bridges follow the written chain, without caps; N, C: chain ends. Non-standard residues stand in square brackets, D forms with d. Residues, ends and D or L forms follow the SMILES beside them. *: point of attachment. Ala(2-furyl) = N[C@@H](Cc1ccco1)C(=O)O; X2 = CONC(=O)CC[C@H](N[*:1])C(=O)[*:2]; Orn(iPr) = CC(C)NCCC[C@H](N)C(=O)O; X1 = CCNCCC[C@H](N[*:1])C(=O)[*:2]; 2Thi = N[C@@H](Cc1cccs1)C(=O)O; 3Thi = N[C@@H](Cc1ccsc1)C(=O)O; Aad = N[C@@H](CCCC(=O)O)C(=O)O; NH(3-hydroxypropyl) = OCCCN*; Orn = NCCC[C@H](N)C(=O)O; Dab = NCC[C@H](N)C(=O)O
Columns and labels:
[1] = biological target: T1, human oxytocin (hOT) receptor (Homo sapiens, UniProt P30559); assay: luciferase-based transcriptional reporter assay, selectivity hOT versus hV1a; format: cell-based
T1 construct: expressed in transfected cells
T1 sequence (P30559 1-389): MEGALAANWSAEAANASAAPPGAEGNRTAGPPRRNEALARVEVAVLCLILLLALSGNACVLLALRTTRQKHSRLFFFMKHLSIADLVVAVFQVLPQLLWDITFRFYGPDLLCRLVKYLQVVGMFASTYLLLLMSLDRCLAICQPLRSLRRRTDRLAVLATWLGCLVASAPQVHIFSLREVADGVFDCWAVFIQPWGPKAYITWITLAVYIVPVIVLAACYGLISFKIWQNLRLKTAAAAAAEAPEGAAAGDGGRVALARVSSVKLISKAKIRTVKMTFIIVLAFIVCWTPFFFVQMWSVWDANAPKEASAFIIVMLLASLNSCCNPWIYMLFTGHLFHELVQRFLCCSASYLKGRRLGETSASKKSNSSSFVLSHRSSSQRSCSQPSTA
Experimental: (§1) Agonist activity of compounds on the hV1a receptor was determined in a transcriptional reporter assay by transiently transfecting a hV1a receptor expression DNA into HEK-293 cells in concert with a reporter DNA containing intracellular calcium responsive promoter elements regulating expression of firefly luciferase. See Boss, V., Talpade, D. J., Murphy, T. J. J. Biol. Chem. 1996, May 3; 271(18), 10429-10432 for further guidance on this assay. […] To determine selectivity, compounds were tested in luciferase-based transcriptional reporter assays expressing the human oxytocin (hOT) receptor. Assays for other receptors (hV2, hV1b, rat V1a and rat V2) were also conducted.
(§2) The EC50 value given is the geometric mean expressed in nanomol/L (nM). Selectivity values are given as EC50 ratios.

[2] = biological target: T2, hV1a receptor (Homo sapiens, UniProt P37288); assay: hV1a receptor transcriptional reporter (luciferase) agonist assay; format: cell-based
T2 construct: expressed in transfected cells; host or cells: HEK-293
T2 sequence (P37288 whole entry): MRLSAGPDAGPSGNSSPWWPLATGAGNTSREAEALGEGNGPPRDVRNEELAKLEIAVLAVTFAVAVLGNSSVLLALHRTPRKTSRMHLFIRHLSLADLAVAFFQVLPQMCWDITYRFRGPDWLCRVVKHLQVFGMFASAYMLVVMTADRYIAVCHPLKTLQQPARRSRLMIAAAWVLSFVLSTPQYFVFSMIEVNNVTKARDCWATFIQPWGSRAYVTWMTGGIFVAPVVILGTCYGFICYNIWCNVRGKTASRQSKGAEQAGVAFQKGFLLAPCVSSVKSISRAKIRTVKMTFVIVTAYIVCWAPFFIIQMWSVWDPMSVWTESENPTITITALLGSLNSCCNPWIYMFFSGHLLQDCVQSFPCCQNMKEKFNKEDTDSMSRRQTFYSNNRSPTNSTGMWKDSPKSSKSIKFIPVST
Experimental: as §1, §2

[3] = system: anaesthetised Sprague-Dawley male rats; assay: in vivo duration of action, blood pressure test in anaesthetised rats; design: species or system rat; conditions: ratio of decay rate of diastolic blood pressure response, AVP 0.1 nmol/kg i.v. to equieffective dose of compound; dibenamine-pretreated rats
Experimental: Blood pressure tests were carried out on anaesthetised Sprague-Dawley male rats (weighing 270-300 g) with catheterised jugular vein and carotid artery. The catheterised carotid artery was used to continuously monitor blood pressure and the jugular vein was used for administration of the compounds tested. Rats received intravenous injections of dibenamine prior to dosing to enhance their responsiveness to V1a receptor agonists (cf. Dekanski, J., Br. J. Pharmacol. 1952, 7, 567-572). […] Dosing intervals were set as time for the blood pressure to decrease to a stable baseline.
Determination of duration of action was based on the decay rate of diastolic arterial blood pressure transient increase. Specifically, for an exponential decay of plasma concentration, it can be shown that, if the response is measured beyond the distribution phase, the rate of decay near the EC50 is linear and inversely proportional to the elimination half-life (Rowland, M. and Tozer, T. in “Clinical Pharmacokinetics, Concepts and Applications”, 3rd ed., Lippincott Williams & Wilkins, Philadelphia, 1995).

[4] = class symbol, agonist efficacy at hOT receptor compared to AVP
[5] = HEK-293 cells transiently transfected with hV1a receptor, 5 hours exposure, geometric mean, read-out: EC50 hV1a receptor

EC50 [2, 5] [nM] | Compound | selectivity hOT/hV1a [1] | EC50 [2] [nM] | in vivo duration relative to AVP [3] | selectivity hOT/hV1a [1, 4] | selectivity hOT/hV1a ([1]; EC50 ratio)
 | CC[C@H](C)[C@@H]1NC(=O)[C@H](Cc2ccccc2)NC(=O)[C@@H](N)CSSC[C@@H](C(=O)N2CCC[C@H]2C(=O)N[C@@H](CCCN)C(=O)NCC(N)=O)NC(=O)[C@H](CC(N)=O)NC(=O)[C@H](CC(=O)NCCCO)NC1=O [Compound 2] (H-CFID(NH(3-hydroxypropyl))NCP[Orn]G-NH2; disulfide 1-6) | + (key: +: selective hV1a receptor agonist; EC50 hOT/hV1a ratio not determined due to very low agonist efficacy (<30% compared to AVP) at the hOT receptor) | 1.18 | 1.7 |  | 
 | CC[C@H](C)[C@@H]1NC(=O)[C@H](Cc2ccccc2)NC(=O)[C@@H](N)CSSC[C@@H](C(=O)N2CCC[C@H]2C(=O)N[C@@H](CCN)C(=O)NCC(N)=O)NC(=O)[C@H](CC(N)=O)NC(=O)[C@H](CC(N)=O)NC1=O [Compound 3] (H-CFINNCP[Dab]G-NH2; disulfide 1-6) | + (key: +: selective hV1a receptor agonist; EC50 hOT/hV1a ratio not determined due to very low agonist efficacy (<30% compared to AVP) at the hOT receptor) | 1.47 | 1.7 |  | 
 | CCNC(=O)C[C@@H]1NC(=O)[C@H]([C@@H](C)CC)NC(=O)[C@H](Cc2ccccc2)NC(=O)[C@@H](N)CSSC[C@@H](C(=O)N2CCC[C@H]2C(=O)N[C@@H](CCN)C(=O)NCC(N)=O)NC(=O)[C@H](CC(N)=O)NC1=O [Compound 4, [Phe^2,Asn(Et)^4, Dbu^8]VT] (H-CFID(NHEt)NCP[Dab]G-NH2; disulfide 1-6; N-terminus and C-terminus assumed) |  |  | 1.8 | + (selective hV1a receptor agonist; EC50 hOT/hV1a ratio not determined due to very low agonist efficacy (<30% compared to AVP) at the hOT receptor) | 
 | CC[C@H](C)[C@@H]1NC(=O)[C@H](Cc2ccccc2)NC(=O)[C@@H](N)CSSC[C@@H](C(=O)N2CCC[C@H]2C(=O)N[C@@H](CCCNC(C)C)C(=O)NCC(N)=O)NC(=O)[C@H](CC(N)=O)NC(=O)[C@H](CCC(N)=O)NC1=O [Compound 5] (H-CFIQNCP[Orn(iPr)]G-NH2; disulfide 1-6; N-terminus and C-terminus assumed) |  | 0.25 | 1.9 |  | 117
 | CCNCCC[C@H](NC(=O)[C@@H]1CCCN1C(=O)[C@@H]1CSSC[C@H](N)C(=O)N[C@@H](Cc2ccccc2)C(=O)N[C@@H]([C@@H](C)CC)C(=O)N[C@@H](CCC(N)=O)C(=O)N[C@@H](CC(N)=O)C(=O)N1)C(=O)NCC(N)=O [Compound 6] (H-CFIQNCP[X1]G-NH2; disulfide 1-6; N-terminus and C-terminus assumed) |  | 0.29 | 1.9 |  | 86
 | CC[C@H](C)[C@@H]1NC(=O)[C@H](Cc2ccccc2)NC(=O)[C@@H](N)CSSC[C@@H](C(=O)N2CCC[C@H]2C(=O)N[C@@H](CCCN)C(=O)NCC(N)=O)NC(=O)[C@H](CC(N)=O)NC(=O)[C@H](CCCC(N)=O)NC1=O [Compound 9] (H-CFI[Aad](NH2)NCP[Orn]G-NH2; disulfide 1-6) | + (key: +: selective hV1a receptor agonist; EC50 hOT/hV1a ratio not determined due to very low agonist efficacy (<30% compared to AVP) at the hOT receptor) | 0.68 | 1.5 |  | 
1.15 | CC[C@H](C)[C@@H]1NC(=O)[C@H](Cc2ccccc2)NC(=O)[C@@H](N)CSSC[C@@H](C(=O)N2CCC[C@H]2C(=O)N[C@@H](CCCN)C(=O)NCC(N)=O)NC(=O)[C@H](CC(N)=O)NC(=O)[C@H](CCC(=O)NOC)NC1=O [Compound 10] (H-CFI[X2]NCP[Orn]G-NH2; disulfide 1-6; N-terminus and C-terminus assumed) |  |  | 2.3 |  | 11
 | CC[C@H](C)[C@@H]1NC(=O)[C@H](Cc2ccccc2)NC(=O)[C@@H](N)CSSC[C@@H](C(=O)N2CCC[C@H]2C(=O)N[C@@H](CCN)C(=O)NCC(N)=O)NC(=O)[C@H](CC(N)=O)NC(=O)[C@H](CCCC(N)=O)NC1=O [Compound 11] (H-CFI[Aad](NH2)NCP[Dab]G-NH2; disulfide 1-6) | + (key: +: selective hV1a receptor agonist; EC50 hOT/hV1a ratio not determined due to very low agonist efficacy (<30% compared to AVP) at the hOT receptor) | 2.96 | 1.9 |  | 
0.61 | CC[C@H](C)[C@@H]1NC(=O)[C@H](Cc2ccsc2)NC(=O)[C@@H](N)CSSC[C@@H](C(=O)N2CCC[C@H]2C(=O)N[C@@H](CCN)C(=O)NCC(N)=O)NC(=O)[C@H](CC(N)=O)NC(=O)[C@H](CCC(N)=O)NC1=O [Compound 15] (H-C[3Thi]IQNCP[Dab]G-NH2; disulfide 1-6) |  |  | 2.2 |  | 43
5.99 | CC[C@H](C)[C@@H]1NC(=O)[C@H](Cc2ccccc2)NC(=O)[C@@H](N)CSSC[C@@H](C(=O)N2CCC[C@H]2C(=O)N[C@@H](CCCN)C(=O)NCC(N)=O)NC(=O)[C@H](CC(N)=O)NC(=O)[C@H](CCC(=O)NC)NC1=O [Compound 19] (H-CFIE(NHMe)NCP[Orn]G-NH2; disulfide 1-6) |  |  | 1.6 | + (selective hV1a receptor agonist; EC50 hOT/hV1a ratio not determined due to very low agonist efficacy (<30% compared to AVP) at the hOT receptor) | 
 | CC[C@H](C)[C@@H]1NC(=O)[C@H](Cc2ccco2)NC(=O)[C@@H](N)CSSC[C@@H](C(=O)N2CCC[C@H]2C(=O)N[C@@H](CCCN)C(=O)NCC(N)=O)NC(=O)[C@H](CC(N)=O)NC(=O)[C@H](CCC(N)=O)NC1=O [Compound 25] (H-C[Ala(2-furyl)]IQNCP[Orn]G-NH2; disulfide 1-6) | 23 | 1.4 | 2.0 |  | 
2.24 | CC[C@H](C)[C@@H]1NC(=O)[C@H](Cc2ccco2)NC(=O)[C@@H](N)CSSC[C@@H](C(=O)N2CCC[C@H]2C(=O)N[C@@H](CCN)C(=O)NCC(N)=O)NC(=O)[C@H](CC(N)=O)NC(=O)[C@H](CCC(N)=O)NC1=O [Compound 26] (H-C[Ala(2-furyl)]IQNCP[Dab]G-NH2; disulfide 1-6; N-terminus and C-terminus assumed) |  |  | 2.0 |  | 28
1.45 | CC[C@H](C)[C@@H]1NC(=O)[C@H](Cc2ccccc2)NC(=O)[C@@H](N)CSSC[C@@H](C(=O)N2CCC[C@H]2C(=O)N[C@@H](CCCN)C(=O)NCC(N)=O)NC(=O)[C@H](CC(N)=O)NC(=O)[C@H](CC(N)=O)NC1=O [Compound 30] (H-CFINNCP[Orn]G-NH2; disulfide 1-6; N-terminus and C-terminus assumed) |  |  | 1.7 | + (selective hV1a receptor agonist; EC50 hOT/hV1a ratio not determined due to very low agonist efficacy (<30% compared to AVP) at the hOT receptor) | 
 | CC[C@H](C)[C@@H]1NC(=O)[C@H](Cc2cccs2)NC(=O)[C@@H](N)CSSC[C@@H](C(=O)N2CCC[C@H]2C(=O)N[C@@H](CCCNC(C)C)C(=O)NCC(N)=O)NC(=O)[C@H](CC(N)=O)NC(=O)[C@H](CCC(N)=O)NC1=O [Compound 34] (H-C[2Thi]IQNCP[Orn(iPr)]G-NH2; disulfide 1-6) | 72 | 0.73 | 2.0 |  | 
 | [Phe2,Orn8]OT [[Phe2, Orn8]OT, reference compound] |  |  | 1.9 |  | 60
